# Data published in EP2669276A1 (Université de Strasbourg, priority 2012, dated 2013).
# How the values were obtained:
# hNPFFR2 = target: T1, hNPFFR2 (Homo sapiens, UniProt Q9Y5X5); test: cAMP measurement (forskolin-stimulated cAMP accumulation) in CHO cells expressing SF-hNPFFR2; assay type: cell-based; conditions: antagonism of NPFF, Schild analysis; S.E.M. below 15%
# T1 construct: The cDNA encoding the full-length human NPFFR1 and human NPFFR2; expressed in transfected cells
# Protocol: (§1) Functional coupling of SF-hNPFFR1 and SF-hNPFFR2 to adenylyl cyclase was assessed by measuring the inhibitory effects of agonist/antagonist and related compounds on forskolin-stimulated cAMP accumulation in CHO cells stably expressing both receptors as previously described (Gicquiaux et al., 2001) with minor modifications. Briefly, 80% confluent CHO cells expressing SF-hNPFFR1 or SF-hNPFFR2 were harvested and seeded in 96-well plates at an initial density of 10,000 cells per well. After 1-2 days of culture (90% confluency), cells were washed with 0.2 ml of PBS (in mM: 137 NaCl, 2.7 KCl, 0.9 CaCl2, 0.5 MgCl2, 6.5 Na2HPO4, 1.5 KH2PO4, pH 7.2), and then incubated at 37°C for 10 min with 0.2 ml assay buffer (in mM: 150 NaCl, 5 KCl, 2.5 CaCl2, 1.2 KH2PO4, 1.2 MgSO4, 25 NaHCO3, 10 HEPES, 10 mg/ml BSA, pH 7.4). After removal of buffer, 0.06 ml of fresh buffer containing 1 mM 3-isobutyl-1-methyl-xanthine (IBMX) was added for 10 min and cells were exposed to 10 µM forskolin without and with compounds (10^-10-10^-5 M) for 10 min at 37 °C in a final volume of 0.1 ml. The reaction was stopped by addition of 0.04 ml volume ice-cold 0.5 M HCl and cells were frozen (-80°C 1 hour) disrupted by sonication and suspensions were centrifuged at 2,000 × g for 15 min. The resulting supernatants were stored at -20°C until determination of cAMP by radioimmunoassay as described (Cailla et al., 1973). […]
# hNPFFR1 = target: T2, hNPFFR1 (Homo sapiens, UniProt Q9GZQ6); test: cAMP measurement (forskolin-stimulated cAMP accumulation) in CHO cells expressing SF-hNPFFR1; assay type: cell-based; conditions: antagonism of NPVF, Schild analysis; S.E.M. below 15%
# T2 construct: The cDNA encoding the full-length human NPFFR1 and human NPFFR2; expressed in transfected cells
# T2 sequence (Q9GZQ6 whole entry): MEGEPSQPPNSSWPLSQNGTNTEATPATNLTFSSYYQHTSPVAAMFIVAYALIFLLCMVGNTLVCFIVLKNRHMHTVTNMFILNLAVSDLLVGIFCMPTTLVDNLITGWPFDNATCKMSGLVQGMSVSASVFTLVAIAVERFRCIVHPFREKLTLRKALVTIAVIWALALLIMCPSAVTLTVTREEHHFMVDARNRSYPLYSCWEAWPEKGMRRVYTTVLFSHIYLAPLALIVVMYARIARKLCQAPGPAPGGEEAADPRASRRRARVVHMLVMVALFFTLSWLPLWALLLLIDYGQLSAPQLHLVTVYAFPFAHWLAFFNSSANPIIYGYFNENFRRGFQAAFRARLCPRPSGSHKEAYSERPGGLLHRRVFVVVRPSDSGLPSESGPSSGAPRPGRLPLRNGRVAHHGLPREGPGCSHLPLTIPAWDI
# Protocol: as §1
# [1] = tested on: hyperalgesia induced by administration of opiate analgesics; conditions: rat, in vivo; cited from earlier work
# T1 sequence (Q9Y5X5 whole entry): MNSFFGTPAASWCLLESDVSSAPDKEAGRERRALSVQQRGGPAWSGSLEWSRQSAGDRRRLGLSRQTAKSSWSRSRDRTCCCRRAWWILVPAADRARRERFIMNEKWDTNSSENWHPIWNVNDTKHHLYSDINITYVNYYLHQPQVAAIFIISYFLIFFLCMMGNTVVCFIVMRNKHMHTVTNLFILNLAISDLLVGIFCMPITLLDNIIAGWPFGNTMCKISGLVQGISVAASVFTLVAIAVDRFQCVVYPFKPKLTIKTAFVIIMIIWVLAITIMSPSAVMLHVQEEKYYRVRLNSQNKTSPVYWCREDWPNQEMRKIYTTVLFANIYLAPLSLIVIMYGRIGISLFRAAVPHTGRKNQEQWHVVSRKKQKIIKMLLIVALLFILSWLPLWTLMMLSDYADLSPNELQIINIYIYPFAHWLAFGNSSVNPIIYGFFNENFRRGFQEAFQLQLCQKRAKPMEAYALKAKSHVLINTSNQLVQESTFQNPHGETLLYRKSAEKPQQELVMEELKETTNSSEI
substance,measurement,setting,value
N^α-adamantan-1-yl-L-Arg-L-Phe-NH2 acetate [RF9],pA2 for hNPFFR2,hNPFFR2,"6,65"
same,pA2 value for hNPFFR1,hNPFFR1,6.47
same,activity on hyperalgesia induced by repeated administration of opiate analgesics,[1],antihyperalgesic activity
